In ChEMBL document CHEMBL4184315, “Discovery of Inhibitor of Wnt Production 2 (IWP-2) and Related Compounds As Selective ATP-Competitive Inhibitors of Casein Kinase 1 (CK1) δ/ε” (J Med Chem, 2018):
The source made the active and inactive calls. No cut-off for these calls is given here.

Assays:
[1] = target: T1, Casein kinase I isoform delta (Homo sapiens, UniProt P48730); experiment: Inhibition of CK1delta in HEK293T cells assessed as stimulation of Wnt/beta-catenin signaling at 5 uM after 22 hrs in presence of Wnt3A-conditioned medium by Super-top flash reporter gene assay relative to control; type: cell-based
Target sequence in this assay (P48730 whole entry, looked up, the tested form may be a part, canonical isoform): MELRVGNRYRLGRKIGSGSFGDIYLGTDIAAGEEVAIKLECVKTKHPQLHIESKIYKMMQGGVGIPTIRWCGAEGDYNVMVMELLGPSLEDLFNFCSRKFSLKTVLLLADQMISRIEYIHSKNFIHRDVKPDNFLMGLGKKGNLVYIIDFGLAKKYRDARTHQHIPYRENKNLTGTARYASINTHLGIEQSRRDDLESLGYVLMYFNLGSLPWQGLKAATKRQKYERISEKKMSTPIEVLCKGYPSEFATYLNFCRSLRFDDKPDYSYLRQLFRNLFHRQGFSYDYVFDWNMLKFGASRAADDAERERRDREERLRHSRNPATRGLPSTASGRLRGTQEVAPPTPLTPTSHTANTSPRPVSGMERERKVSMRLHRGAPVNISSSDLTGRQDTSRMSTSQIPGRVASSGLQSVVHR

[2] = target: T2, Casein kinase I isoform delta (Rattus norvegicus, UniProt Q06486); experiment: Inhibition of rat recombinant CK1delta kinase domain using alpha-casein as substrate after 30 mins in presence of [gamma-32P]-ATP by Cherenkov counting method
[3] = target: T2, Casein kinase I isoform delta; experiment: Inhibition of full-length rat GST-tagged CK1delta using alpha-casein as substrate after 30 mins in presence of [gamma-32P]-ATP by Cherenkov counting method
[4] = target: Casein kinase I isoform delta (Rattus norvegicus, UniProt Q06486, M82F); experiment: Inhibition of rat GST-tagged CK1delta M82F mutant at 10 uM using alpha-casein as substrate after 30 mins in presence of [gamma-32P]-ATP by Cherenkov counting method
[5] = target: Casein kinase I isoform epsilon (Homo sapiens, UniProt P49674); experiment: Inhibition of human recombinant CK1epsilon using alpha-casein as substrate after 30 mins in presence of [gamma-32P]-ATP by Cherenkov counting method
[6] = target: T3, Casein kinase I isoform alpha (Bos taurus) (UniProt P67827); experiment: Inhibition of bovine GST-tagged CK1alpha at 1 uM using alpha-casein as substrate after 30 mins in presence of [gamma-32P]-ATP by Cherenkov counting method
T3 sequence (whole entry): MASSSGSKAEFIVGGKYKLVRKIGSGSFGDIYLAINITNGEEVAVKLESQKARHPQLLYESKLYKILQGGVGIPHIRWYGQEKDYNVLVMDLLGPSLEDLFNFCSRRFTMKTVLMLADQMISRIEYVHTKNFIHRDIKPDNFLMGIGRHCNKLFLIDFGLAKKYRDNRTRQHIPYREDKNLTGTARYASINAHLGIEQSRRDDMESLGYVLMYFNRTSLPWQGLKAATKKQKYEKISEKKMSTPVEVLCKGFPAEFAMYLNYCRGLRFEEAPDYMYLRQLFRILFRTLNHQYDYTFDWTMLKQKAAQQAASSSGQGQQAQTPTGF

[7] = target: Casein kinase I isoform gamma-3 (Homo sapiens) (UniProt Q9Y6M4); experiment: Inhibition of human GST-tagged CK1gamma3 at 1 uM using alpha-casein as substrate after 30 mins in presence of [gamma-32P]-ATP by Cherenkov counting method
[8] = target: T1, Casein kinase I isoform delta; experiment: Inhibition of human recombinant CK1delta at 1 uM after 60 mins in presence of [gamma-33P]-ATP by scintillation counting method
Target sequence in this assay (P48730 whole entry, looked up, the tested form may be a part, canonical isoform): as the sequence (P48730 whole entry, looked up, the tested form may be a part, canonical isoform) above

[9] = target: T4, Protein-serine O-palmitoleoyltransferase porcupine (Homo sapiens, UniProt Q9H237); experiment: Inhibition of porcupine in HEK293T cells transfected with Wnt3A-expressing vector assessed as suppression of Wnt/beta-catenin signaling after 22 hrs by Super-top flash reporter gene assay; type: cell-based
T4 sequence (Q9H237 whole entry): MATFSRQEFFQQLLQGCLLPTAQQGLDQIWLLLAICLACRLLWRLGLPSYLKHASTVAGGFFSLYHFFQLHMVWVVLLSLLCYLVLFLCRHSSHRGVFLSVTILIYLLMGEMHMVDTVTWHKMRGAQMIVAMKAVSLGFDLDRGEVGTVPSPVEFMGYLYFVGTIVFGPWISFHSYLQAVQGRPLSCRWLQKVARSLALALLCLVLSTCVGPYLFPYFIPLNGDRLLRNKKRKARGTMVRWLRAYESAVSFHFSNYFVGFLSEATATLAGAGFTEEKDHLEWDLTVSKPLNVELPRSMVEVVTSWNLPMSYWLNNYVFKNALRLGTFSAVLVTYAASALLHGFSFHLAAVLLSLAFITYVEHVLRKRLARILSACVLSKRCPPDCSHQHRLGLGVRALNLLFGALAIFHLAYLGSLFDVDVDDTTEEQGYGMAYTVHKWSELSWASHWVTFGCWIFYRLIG

[10] = target: T5, Protein-serine O-palmitoleoyltransferase porcupine (Homo sapiens) (UniProt Q9H237); experiment: Inhibition of porcupine in HEK293T cells transfected with Wnt3A-expressing vector assessed as suppression of Wnt/beta-catenin signaling at 5 uM after 22 hrs by Super-top flash reporter gene assay relative to control; type: cell-based
T5 sequence (whole entry): T4 sequence (Q9H237 whole entry)

[11] = target: T1, Casein kinase I isoform delta; experiment: Inhibition of CK1delta in HEK293T cells assessed as stimulation of Wnt/beta-catenin signaling after 22 hrs in presence of Wnt3A-conditioned medium by Super-top flash reporter gene assay; type: cell-based
Target sequence in this assay (P48730 whole entry, the tested form may be a part, canonical isoform): as the sequence (P48730 whole entry, looked up, the tested form may be a part, canonical isoform) above

HEK-293T [12] = experiment: Upregulation of renilla luciferase expression in HEK293T cells transfected with Wnt3A-expressing vector up to 5 uM after 22 hrs by luminescence assay relative to control; type: cell-based; conditions: human
HEK-293T [13] = experiment: Upregulation of renilla luciferase expression in HEK293T cells up to 5 uM after 22 hrs in presence of Wnt3A-conditioned medium by luminescence assay relative to control; type: cell-based; conditions: human
HEK-293T [14] = experiment: Toxicity in HEK293T cells at 0.5 to 5 uM after 6 to 22 hrs by CellTiter-Glo assay; type: cell-based; conditions: human
[15] = target: Casein kinase I isoform delta (Rattus norvegicus) (UniProt Q06486); experiment: Inhibition of full-length rat GST-tagged CK1delta assessed as residual activity at 10 uM using alpha-casein as substrate after 30 mins in presence of [gamma-32P]-ATP by Cherenkov counting method
[16] = target: Casein kinase I isoform delta (Rattus norvegicus) (UniProt Q06486); experiment: Inhibition of rat recombinant CK1delta kinase domain assessed as residual activity at 10 uM using alpha-casein as substrate after 30 mins in presence of [gamma-32P]-ATP by Cherenkov counting method
[17] = Selectivity ratio of IC50 for human CK1epsilon to IC50 for full-length rat GST-tagged CK1delta
[18] = Selectivity ratio of IC50 for human CK1epsilon to IC50 for rat recombinant CK1delta kinase domain
[19] = target: Casein kinase I isoform delta (Rattus norvegicus) (UniProt Q06486); experiment: Ratio of IC50 for full-length rat GST-tagged CK1delta to IC50 for rat recombinant CK1delta kinase domain
[20] = target: Casein kinase I isoform delta (Rattus norvegicus) (UniProt Q06486); experiment: Competitive inhibition of full-length rat GST-tagged CK1delta at IC50 using alpha-casein as substrate after 30 mins in presence of 10 to 500 uM ATP and [gamma-32P]-ATP by Cherenkov counting method
[21] = target: T1, Casein kinase I isoform delta; experiment: Inhibition of human recombinant CK1delta assessed as residual activity at 1 uM after 60 mins in presence of [gamma-33P]-ATP by scintillation counting method
Target sequence in this assay (P48730 whole entry, looked up, the tested form may be a part, canonical isoform): as the sequence (P48730 whole entry, looked up, the tested form may be a part, canonical isoform) above

[22] = target: Tyrosine-protein kinase ZAP-70 (Homo sapiens) (UniProt P43403); experiment: Inhibition of recombinant human full length GST/His-tagged ZAP70 expressed in Sf9 cells assessed as residual activity at 1 uM after 60 mins in presence of [gamma-33P]-ATP by scintillation counting method
[23] = target: Serine/threonine-protein kinase tousled-like 2 (Homo sapiens) (UniProt Q86UE8); experiment: Inhibition of recombinant human N-terminal FLAG/C-terminal HIS8-tagged TLK2 assessed as residual activity at 1 uM after 60 mins in presence of [gamma-33P]-ATP by scintillation counting method
[24] = target: Tyrosine-protein kinase ZAP-70 (Homo sapiens) (UniProt P43403); experiment: Inhibition of recombinant human ZAP70 at 5 nM to 10 uM using poly (L-glutamic acid-L-tyrosine) as substrate after 30 mins in presence of [gamma-32P]-ATP by Cherenkov counting method
[25] = target: Serine/threonine-protein kinase tousled-like 2 (Homo sapiens) (UniProt Q86UE8); experiment: Inhibition of recombinant human TLK2 at 5 nM to 10 uM using alpha-casein as substrate after 30 mins in presence of [gamma-32P]-ATP by Cherenkov counting method
[26] = Antiproliferative activity against human A818-6 cells after 48 hrs by MTT assay; type: functional, cell-based
MIA PaCa-2 = experiment: Antiproliferative activity against human MIAPaCa2 cells after 48 hrs by MTT assay; type: functional, cell-based; conditions: MIA PaCa-2, 48 h
PANC-1 = experiment: Antiproliferative activity against human PANC1 cells after 48 hrs by MTT assay; type: functional, cell-based; conditions: PANC-1, 48 h
[27] = Antiproliferative activity against human Panc89 cells after 48 hrs by MTT assay; type: functional, cell-based
HT-29 = experiment: Antiproliferative activity against human HT-29 cells after 48 hrs by MTT assay; type: functional, cell-based; conditions: HT-29, 48 h
HEK293 = experiment: Antiproliferative activity against human HEK293 cells after 48 hrs by MTT assay; type: functional, cell-based; conditions: HEK293, 48 h
SW-620 = experiment: Antiproliferative activity against human SW620 cells after 48 hrs by MTT assay; type: functional, cell-based; conditions: SW-620, 48 h
CAPAN-1 = experiment: Antiproliferative activity against human Capan1 cells after 48 hrs by MTT assay; type: functional, cell-based; conditions: CAPAN-1, 48 h
[28] = target: T1, Casein kinase I isoform delta; experiment: Inhibition of CK1delta in human PANC1 cells assessed as residual activity at 2.33 uM using GST-tagged p53 (1 to 64 residues) as substrate after 48 hrs in presence of [gamma-32P]-ATP by Cherenkov counting method; type: cell-based
Target sequence in this assay (P48730 whole entry, looked up, the tested form may be a part, canonical isoform): as the sequence (P48730 whole entry, looked up, the tested form may be a part, canonical isoform) above

Homo sapiens = species: Homo sapiens; experiment: Inhibition of Wnt/beta-catenin signaling in HEK293T cells after 22 hrs in presence of Wnt3A-conditioned medium by Super-top flash reporter gene assay; type: cell-based

T2 sequence (Q06486 whole entry, the tested form may be a part, canonical isoform): as the sequence (P48730 whole entry, looked up, the tested form may be a part, canonical isoform) above, with I381V counted along it
Sequence of Casein kinase I isoform delta (Rattus norvegicus) (Q06486 whole entry, looked up, the tested form may be a part, canonical isoform): as the sequence (P48730 whole entry, looked up, the tested form may be a part, canonical isoform) above, with I381V counted along it
Sequence of Tyrosine-protein kinase ZAP-70 (Homo sapiens) (P43403 whole entry): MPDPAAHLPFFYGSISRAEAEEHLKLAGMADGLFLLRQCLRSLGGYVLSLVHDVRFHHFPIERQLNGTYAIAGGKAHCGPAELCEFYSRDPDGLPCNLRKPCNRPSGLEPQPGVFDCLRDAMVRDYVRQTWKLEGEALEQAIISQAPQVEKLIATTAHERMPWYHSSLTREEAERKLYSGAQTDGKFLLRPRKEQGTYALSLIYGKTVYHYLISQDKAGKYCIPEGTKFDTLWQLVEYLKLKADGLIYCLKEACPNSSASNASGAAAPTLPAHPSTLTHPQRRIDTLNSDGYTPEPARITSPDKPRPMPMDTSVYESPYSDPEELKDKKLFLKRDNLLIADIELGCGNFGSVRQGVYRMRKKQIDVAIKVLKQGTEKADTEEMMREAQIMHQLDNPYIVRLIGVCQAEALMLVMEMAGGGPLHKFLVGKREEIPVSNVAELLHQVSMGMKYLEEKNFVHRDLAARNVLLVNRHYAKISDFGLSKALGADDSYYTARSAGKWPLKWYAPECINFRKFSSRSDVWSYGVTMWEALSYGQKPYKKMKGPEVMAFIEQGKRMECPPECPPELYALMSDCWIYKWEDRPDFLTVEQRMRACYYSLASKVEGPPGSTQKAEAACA
Sequence of Casein kinase I isoform delta (Rattus norvegicus, UniProt Q06486, M82F) (Q06486 whole entry M82F, canonical isoform): as the sequence (P48730 whole entry, looked up, the tested form may be a part, canonical isoform) above, with M82F, I381V counted along it
Sequence of Serine/threonine-protein kinase tousled-like 2 (Homo sapiens) (Q86UE8 whole entry, looked up): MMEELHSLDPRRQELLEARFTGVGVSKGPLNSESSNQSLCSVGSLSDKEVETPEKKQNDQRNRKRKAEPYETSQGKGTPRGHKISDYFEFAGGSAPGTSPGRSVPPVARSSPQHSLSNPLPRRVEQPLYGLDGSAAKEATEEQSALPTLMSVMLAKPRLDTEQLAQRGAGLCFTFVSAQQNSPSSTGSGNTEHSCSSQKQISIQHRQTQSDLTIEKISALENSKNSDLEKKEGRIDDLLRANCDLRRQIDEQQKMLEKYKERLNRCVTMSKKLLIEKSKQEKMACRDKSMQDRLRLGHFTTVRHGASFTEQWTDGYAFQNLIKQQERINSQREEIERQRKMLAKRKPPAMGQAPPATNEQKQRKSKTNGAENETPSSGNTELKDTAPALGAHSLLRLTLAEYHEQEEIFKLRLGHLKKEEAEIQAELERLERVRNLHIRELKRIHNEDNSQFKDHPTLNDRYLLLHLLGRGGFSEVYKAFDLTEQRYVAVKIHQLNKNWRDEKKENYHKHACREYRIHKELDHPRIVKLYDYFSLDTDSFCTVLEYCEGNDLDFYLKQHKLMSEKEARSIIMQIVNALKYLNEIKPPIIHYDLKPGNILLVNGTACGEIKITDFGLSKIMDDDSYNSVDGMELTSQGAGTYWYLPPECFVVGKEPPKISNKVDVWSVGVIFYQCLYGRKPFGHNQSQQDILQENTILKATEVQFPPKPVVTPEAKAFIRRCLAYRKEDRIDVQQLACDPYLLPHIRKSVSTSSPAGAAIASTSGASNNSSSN
Sequence of Casein kinase I isoform epsilon (P49674 whole entry, canonical isoform): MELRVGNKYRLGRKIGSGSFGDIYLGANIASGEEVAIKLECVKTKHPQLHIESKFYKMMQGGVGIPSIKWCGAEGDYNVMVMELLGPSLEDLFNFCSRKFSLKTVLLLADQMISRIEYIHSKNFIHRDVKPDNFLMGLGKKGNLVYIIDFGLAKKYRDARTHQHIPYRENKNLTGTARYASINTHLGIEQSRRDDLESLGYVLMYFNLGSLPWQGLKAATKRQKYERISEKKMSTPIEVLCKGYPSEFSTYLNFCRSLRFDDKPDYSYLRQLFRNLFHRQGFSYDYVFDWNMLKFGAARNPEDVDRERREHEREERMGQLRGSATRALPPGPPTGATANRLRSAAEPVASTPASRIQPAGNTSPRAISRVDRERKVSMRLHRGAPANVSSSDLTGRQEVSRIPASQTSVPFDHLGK
Sequence of Casein kinase I isoform gamma-3 (Homo sapiens) (Q9Y6M4 whole entry, looked up, canonical isoform): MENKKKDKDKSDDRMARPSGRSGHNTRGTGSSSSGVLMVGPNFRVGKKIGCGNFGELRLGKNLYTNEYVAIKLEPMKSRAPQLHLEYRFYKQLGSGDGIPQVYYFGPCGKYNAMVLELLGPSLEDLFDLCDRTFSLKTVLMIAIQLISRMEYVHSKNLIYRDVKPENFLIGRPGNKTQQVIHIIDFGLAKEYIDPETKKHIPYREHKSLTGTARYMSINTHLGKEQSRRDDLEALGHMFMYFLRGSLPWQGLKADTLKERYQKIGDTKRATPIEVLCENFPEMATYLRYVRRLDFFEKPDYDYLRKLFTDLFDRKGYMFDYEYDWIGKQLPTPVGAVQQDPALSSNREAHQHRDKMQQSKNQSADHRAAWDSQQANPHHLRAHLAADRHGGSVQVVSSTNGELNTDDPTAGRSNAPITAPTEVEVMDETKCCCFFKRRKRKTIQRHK

In the case of COc1ccc(Cn2c(SCC(=O)Nc3nc4ccc(C(F)(F)F)cc4s3)nc3c(c2=O)SCC3)cc1, the Emax [1] is reported as 225%, the IC50 [2] is reported as 90 nM and the IC50 [3] is reported as 410 nM. The IC50 [4] was 90 nM, the IC50 [5] was 560 nM and the inhibition [6] was “Active”. For the same compound, the inhibition [7] was “Active”, the inhibition [8] was “Active” and the IC50 [9] was 710 nM. For the same compound, the Imax [10] was 38.8%, the EC50 [11] was 1470 nM and the “fold change (FC)” value (HEK-293T [12]) was “<= 1.3”. The “fold change (FC)” value (HEK-293T [13]) was “<= 1.5”.
With Fc1cccc(-n2cnc3c(NCc4nc5ccc(F)c(F)c5[nH]4)nc(N4CCOCC4)nc32)c1 the Activity (HEK-293T [14]) was “Toxic”.
Cc1ccc2nc(NC(=O)CSc3nc4c(c(=O)n3-c3ccccc3)SCC4)sc2c1 showed an Activity [15] of 23%, an Activity [16] of 19% and an IC50 [2] of 320 nM. The IC50 [3] was 930 nM, the IC50 [4] was 40 nM and the IC50 [5] was 4030 nM. The Ratio IC50 [17] was 4 to 7, the Ratio IC50 [18] was under 17 and the Ratio IC50 [19] was 4. For the same compound, the inhibition [20] was “Active”, the Activity [21] was 55% and the Activity [22] was 54%. For the same compound, the Activity [23] was 59%, the inhibition [24] was “inactive” and the inhibition [25] was “inactive”. For the same compound, the EC50 [26] was 8960 nM, the EC50 (MIA PaCa-2) was 1900 nM and the EC50 (PANC-1) was 2330 nM. The EC50 [27] was 3860 nM, the EC50 (HT-29) was 4670 nM and the EC50 (HEK293) was 2760 nM. It also gave an EC50 (SW-620) of 1900 nM, an EC50 (CAPAN-1) of 2050 nM and an Activity [28] of 66%. The IC50 [9] was 157 nM, the Imax [10] was 5.5% and the inhibition (Homo sapiens) was “inactive”. For the same compound, the “fold change (FC)” value (HEK-293T [12]) was “<= 1.3” and the “fold change (FC)” value (HEK-293T [13]) was “<= 1.5”.
